SMILES strings stand for the structures.

One experiment has as its system T1, PngL.
T1 construct: hexahistidine-tagged, recombinant from Escherichia coli; difficult to purify
Description: steady-state kinetics. In kind it is biochemical, Penicillium sp. FKI-2140. The conditions noted are these: accurate parameters prevented by difficult purification; conditions in Supplementary Methods.

The next experiment deals with T2, AsqI (Aspergillus nidulans, UniProt C8VJQ3).
T2 construct: hexahistidine-tagged, recombinant from Escherichia coli; plasmid pKW18244; zinc-dependent
Description: LC-MS initial rate of […]′-methoxyviridicatin […] formation. In kind it is biochemical. The following applies: MES Na 100 mM, NaCl 100 mM, pH 5.5, 30 °C; substrate 0.05-0.8 mM, Km extrapolated above tested range.

T2 sequence (C8VJQ3 whole entry): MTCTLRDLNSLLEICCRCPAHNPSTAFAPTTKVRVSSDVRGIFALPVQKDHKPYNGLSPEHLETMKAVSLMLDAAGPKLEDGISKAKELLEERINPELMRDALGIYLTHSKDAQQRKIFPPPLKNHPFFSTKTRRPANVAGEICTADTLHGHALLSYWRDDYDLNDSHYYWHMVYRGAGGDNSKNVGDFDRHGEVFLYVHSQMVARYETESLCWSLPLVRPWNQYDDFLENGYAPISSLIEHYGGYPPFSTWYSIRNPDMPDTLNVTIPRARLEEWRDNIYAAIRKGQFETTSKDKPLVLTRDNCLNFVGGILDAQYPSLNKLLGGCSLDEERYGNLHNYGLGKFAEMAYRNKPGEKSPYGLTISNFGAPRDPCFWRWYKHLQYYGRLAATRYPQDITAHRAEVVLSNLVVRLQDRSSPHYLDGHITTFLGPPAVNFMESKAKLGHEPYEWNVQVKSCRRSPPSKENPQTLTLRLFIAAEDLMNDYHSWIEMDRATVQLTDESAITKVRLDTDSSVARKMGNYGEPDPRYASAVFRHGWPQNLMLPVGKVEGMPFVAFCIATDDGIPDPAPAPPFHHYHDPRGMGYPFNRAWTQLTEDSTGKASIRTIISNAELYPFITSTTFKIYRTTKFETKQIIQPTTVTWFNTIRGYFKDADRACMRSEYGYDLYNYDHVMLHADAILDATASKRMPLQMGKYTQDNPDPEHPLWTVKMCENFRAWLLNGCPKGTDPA

Usually Km stands for the substrate concentration at which the rate is half of its maximum. Consider `COc1ccc(C2OC23C(=O)Nc2ccccc2C(=O)N3C)cc1` (single isomer, unassigned; (-)) [compound 2, (–)-4′-methoxycyclopenin], for which the Km is 350 ± 30 µM in the experiment on PngL and 2860 ± 520 µM at AsqI.

Values taken from publication PMC6053404, “Enzymatic one-step ring contraction for quinolone biosynthesis” (Nature Communications, 2018).
